Experimental data published in US20240139178A1, “METHOD FOR MANUFACTURING COMPOSITION FOR COMPOSITION FOR INCREASING COGNITIVE FUNCTION” (priority 2018, published 2024).

Tests used:
Aβ1-42 [1] = biological target: T1, Aβ1-42 (Homo sapiens, UniProt P05067); test: Aβ aggregation inhibition test (Thioflavin T analysis); assay type: biochemical; conditions: for Aβ aggregation degree compared to the control / amyloid aggregation inhibition effect compared to the control: 2 μM compound, Aβ1-42 50 μM; for Aβ aggregation degree compared to the control: 37° C. 72 hours, control = 100%; for amyloid aggregation inhibition effect compared to the control: 72 hours; for Aggregation (%): 20 μM compound, 50 μM Aβ, 3 days, relative to control (100%)
T1 construct: human A81-42 monomers (UniProtKB-P05067, a.a. 672-713)
T1 sequence (P05067 672-713): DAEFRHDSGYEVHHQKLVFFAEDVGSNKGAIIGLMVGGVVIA
Experimental: Then, the compound was used diluted by using 6% DMSO (in DW) and used.
Triflupromazine hydrochloride (triflupromazine used in all the examples below is triflupromazine hydrochloride) was dissolved to a concentration of 5 mM in DMSO. The compound was then used diluted with 6% DMSO (in DW).
The Aβ solution was prepared by dissolving human A81-42 monomers (UniProtKB-P05067, a.a. 672-713) to 10 mM concentration in DMSO. Thereafter, the mixture was diluted to 100 uM by using DW and stored on ice.
On the other hand, Thioflavin-T (Sigma-Aldrich) was dissolved to the concentration of 5 mM in 50 mM glycine buffer (pH 8.5). Then, the resultant solution was diluted to the concentration of 50 μM by using 50 mM glycine buffer (pH 8.5) and stored in the dark while light was blocked.
(§1) 25 μL of the reaction solution in which the reaction was completed was added to each well of a 96-well fluorescence assay plate, and 75 μL of the Thioflavin-T solution prepared above was added to each well. After reacting for 5 minutes in the dark at room temperature, fluorescence values were measured at excitation 450 nm and emission 485 nm by using a multi-mode microplate reader.
The fluorescence value of the group (control) treated with Aβ alone and aggregated for 72 hours was considered as 100%, and the measured fluorescence values were expressed as a relative value thereto, and results thereof are shown in FIG. 1 and FIG. 2.
In addition, by performing the same test as described above for 20 μM of various compounds using 50 μM Aβ, the degree of Aβ aggregation was measured, and the result is expressed as a relative value for control (100%).

Aβ1-42 [2] = biological target: T1, Aβ1-42; test: Aβ disaggregation test by Thioflavin T analysis; assay type: biochemical; conditions: for amyloid disaggregation effect: Aβ1-42 25 μM; for degree of Aβ aggregation compared to the control: Aβ1-42 25 μM pre-aggregated 72 hours, then 72 hours
Experimental: (§2) The compound was then used diluted with 6% DMSO (in DW).
Triflupromazine hydrochloride was dissolved to the concentration of 5 mM in DMSO. The compound was then used diluted with 6% DMSO (in DW).
(§3) The Aβ solution was prepared by dissolving Aβ 1-42 monomers to the concentration of 10 mM in DMSO. Thereafter, the mixture was diluted to 100 μM by using DW and stored on ice.
(§4) On the other hand, Thioflavin-T was dissolved to the concentration of 5 mM in 50 mM glycine buffer (pH 8.5). Then, the resultant solution was diluted to the concentration of 50 μM by using 50 mM glycine buffer (pH 8.5) and stored in the dark while light was blocked.
The Aβ solution prepared in Example 2.1. was placed in 1.5 mL microcentrifuge tubes, each having 25 μM of the Aβ solution, and then reacted at 37° C. for 72 hours.
as §1
The fluorescence value of the group (control) treated with Aβ alone and aggregated for 72 hours was considered as 100%, and the measured fluorescence values were expressed as a relative value thereto, and results thereof are shown in FIG. 3 and FIG. 4.

Aβ42 = biological target: T2, Aβ42 (Homo sapiens, UniProt P05067); test: Aβ disaggregation test by SDS-PAGE analysis (PICUP); assay type: biochemical; conditions: 25 μM Aβ aggregated 3 days, 50 μM or 500 μM compound, further 3 days
T2 construct: human A81-42 monomers (UniProtKB-P05067, a.a. 672-713)
T2 sequence (P05067 672-713): as above
Experimental: In order to confirm Aβ disaggregation in the sample prepared in Example 2.1, SDS-PAGE analysis was performed as follows.
In detail, the stock of ammonium persulfate (APS; 200 mM)and tris (2,2′-bipyridyl)dichlororuthenium (II) hexahydrate (Ru; 10 mM) was prepared in an amber tube (Axygen, MCT-150-X) by using a photo-induced cross-linking of unmodified proteins (PICUP) buffer (0.1 M sodium phosphate (pH 7.4)). The stock was diluted 10-fold in PICUP buffer (APS: 20 mM/Ru: 1 mM). 10 μL of each sample prepared in Example 2.1 was dispensed at the bottom of a 0.5 mL tube (Axygen, PCR-05-C). 1 μL of APS (20 mM) was dispensed on the tube wall and 1 μL of Ru (1 mM) on the tube cap. At this time, in order to prevent the reaction from proceeding, the sample was not mixed with APS and Ru. After closing the tube cap and spin down using a centrifuge, the tube was removed from the centrifuge and exposed to light 3 times per second using an incandescent lamp. 3 μL of 5× reducing sample buffer (w/5% β-mercaptoethanol) was added to each tube. Samples were heated at 95-100° C. for 5 minutes and then cooled on ice.
Then, the PICUP-treated samples were loaded on 4-20% (w/v) tris/glycine gel and electrophoresed at 100V for 1 hour and 30 minutes. After electrophoresis, the gel was separated and confirmed by silver staining.

Aβ1-42 [3] = biological target: T1, Aβ1-42; test: Aβ disaggregation test of rifamycin-based derivatives by Thioflavin T analysis; assay type: biochemical; conditions: 50 μM compound, 50 μM Aβ1-42 aggregated 3 days, then 2 days of reaction
Experimental: as §2, §3, §4
The Aβ solution prepared in Example 3.1. was placed in 1.5 mL microcentrifuge tubes, each having 50 μM of the Aβ solution, and then reacted at 37° C. for 72 hours.
Each 1.5 mL microcentrifuge tube was treated with 50 μM rifapentine-based derivatives, followed by reaction at 37° C. for 48 hours.
as §1
The fluorescence value of the group (control) treated with Aβ alone and aggregated for 72 hours by treating only Aβ was considered as 100%, and the measured fluorescence values were expressed as a relative value thereto, and results thereof are shown in FIG. 7.

APP/PS1 TG mice = test: Y-maze test; assay type: in vivo; conditions: 8th week after oral administration; compared to TG-Veh and WT-Veh
From the text: (§5) Transgenic mice (APP/PS1 TG; Alzheimer' disease animal model; B6C3-Tg(APPswe, PSEN1dE)85Dbo/Mmjax) and wild type mice were derived from Jackson Laboratory (Bar Harbor, Maine, USA). APP/PS1 TG mice crossed with wild-type mice and maintained as double hemizygotes. All genotypes were confirmed by PCR analysis using tail DNA according to the standard PCR conditions of the Jackson Laboratory. Each mouse was housed in a plastic cage in the animal cage and the temperature of the plastic cage was maintained at 21±1° C. in alternating 12 hour light cycle, and the mice were freely fed with food and water.
The control group received the same amount of vehicle (0.5% MC in DW).
Y-maze test was performed using a maze structure made by placing the same three arms 40 cm in length (15 cm in height of the wall) at an angle of 120 degrees. […] The search time was 8 minutes per subject, and the final result was expressed as a spontaneous alteration (%) value. Spontaneous alteration (%) value was calculated by the following formula. […]
Behavioral patterns were analyzed using SMART VIDEO TRACKING Software (Panlab, USA). All data obtained in the experiments were expressed as mean±standard error mean (SEM), and the drug-applied group was compared with the non-drug group, which was a control, by using student's t-test.

5× FAD mice = test: Amyloid plaque reduction by oral triflupromazine, Thioflavin S staining; assay type: in vivo; conditions: oral 50 mg/kg once every two days for 3 weeks; vs vehicle control mice
From the text: as §5, with “(5×FAD; Alzheimer's” for “(APP/PS1 TG; Alzheimer'”, “B6SJL-Tg (APPSwFILon, PSEN1*M146L*L286V)6799Vas/Mmjax))” for “B6C3-Tg(APPswe, PSEN1dE)85Dbo/Mmjax)”, “wild-type” for “wild type”, “obtained” for “derived”, “5× FAD” for “APP/PS1 TG”, “Four to six mice were” for “Each mouse was”
(§6) Seven-month old 5× FAD mice were orally treated with 50 mg/kg of triflupromazine once every two days for 3 weeks. The control received the same amount of vehicle (1% (w/v) DMSO in PBS).
Mice were anesthetized using 2%(w/v) avertin (20 mg/g, i.p.). The mice were perfused with 0.9%(w/v) NaCl and brains thereof were excised. […] The lysate concentration was measured using the BCA protein assay kit (thermoFisher, cat #232250) according to the manufacturer's instructions. The absorbance was read at 560 nm.
To stain frozen brain with thioflavin S (ThS), the brain was cut to 35 um thickness to create tissue sections using cryostat (Leica CM1800) and then Aβ plaques were stained. […] Images were obtained using a Leica DM2500 fluorescence microscope.

[4] = test system: Total Tau (T-Tau) and phosphorylated Tau (P-Tau); test: Western blot of total and phosphorylated Tau in brain tissue after oral triflupromazine; assay type: in vivo, mice
From the text: as §5, with “(5×FAD; Alzheimer's” for “(APP/PS1 TG; Alzheimer'”, “B6SJL-Tg (APPSwFILon, PSEN1*M146L*L286V)6799Vas/Mmjax))” for “B6C3-Tg(APPswe, PSEN1dE)85Dbo/Mmjax)”, “wild-type” for “wild type”, “obtained” for “derived”, “5× FAD” for “APP/PS1 TG”, “Four to six mice were” for “Each mouse was”
as §6
Mice were anesthetized using 2%(w/v) avertin (20 mg/g, i.p.). The mice were perfused with 0.9%(w/v) NaCl and brains thereof were excised. The hemibrains were fixed overnight at 4° C. in 4° /0(w/v) paraformaldehyde (pH 7.4). For cryopreservation, brains were soaked in 30%(w/v) sucrose for 48 hours. The other hemibrains were dissected into cortical and hippocampal regions and homogenized on ice for 30 minutes in lysis buffer (10 mM Tris-HCl, 5 mM EDTA in 320 mM sucrose, pH 7.4) containing 1× protease inhibitor cocktail. The sample was centrifuged at 13500 rpm for 30 minutes at 4° C. The lysate concentration was measured using the BCA protein assay kit (thermoFisher, cat #232250) according to the manufacturer's instructions. The absorbance was read at 560 nm.
Changes in Tau, a major cause of Alzheimer's dementia and Parkinson's disease, together with Aβ plaques, were confirmed by Western blot analysis. Samples of the prepared tissues were separated by SDS-PAGE and transferred to PVDF membrane. The membrane was treated overnight at 4° C. using the primary antibody. As the primary antibody, antibodies capable of detecting Total Tau (T-Tau) and phosphorylated Tau (P-Tau) were used, and detection was performed using a secondary antibody conjugated with horseradical peroxidase (HRP). The blot development was performed with a Clarity Western ECL substrate (Bio-Rad) according to the manufacturer's instructions.
On the other hand, in wild type mice (Wt), a decrease in total Tau (T-Tau) and phosphorylated Tau (P-Tau) was not observed.

[5] = 5× FAD (Tg) mice, cortex and hippocampus tissue, oral 50 mg/kg once every two days for 3 weeks, vs Tg veh

In the case of `CO[C@H]1/C=C/O[C@@]2(C)Oc3c(C)c(O)c4c(O)c(c(/C=N/N5CCN(C6CCCC6)CC5)c(O)c4c3C2=O)NC(=O)/C(C)=C\C=C\[C@H](C)[C@H](O)[C@@H](C)[C@@H](O)[C@@H](C)[C@H](OC(C)=O)[C@@H]1C` [rifapentine, 3-[[(4-cyclopentyl-1-piperazinyl)imino]methyl]-rifamycin], the “Aβ aggregation degree compared to the control” value (Aβ1-42 [1]) is reported as ≤ 40%, the “amyloid aggregation inhibition effect compared to the control” value (Aβ1-42 [1]) is reported as ≥ 60% and the “Aggregation (%)” value (Aβ1-42 [1]) is reported as 13.35%. The amyloid disaggregation effect (Aβ1-42 [2]; 50 μM compound) was ≥ 90%, the “degree of Aβ aggregation compared to the control” value (Aβ1-42 [2]; 50 μM compound) was ≤ 10% and the amyloid disaggregation effect (Aβ1-42 [2]; 500 μM compound) was ≥ 99%. The “degree of Aβ aggregation compared to the control” value (Aβ1-42 [2]; 500 μM compound) was ≤ 1%, the “Aβ disaggregation (bands of aggregated Aβ fibrils and dimers)” value (Aβ42) was “concentration-dependent Aβ disaggregation activity” and the “Aβ disaggregation effect compared to the control” value (Aβ1-42 [3]) was ≥ 90%. For the same molecule, the “degree of Aβ aggregation compared to the control” value (Aβ1-42 [3]) was ≤ 10% and the “spontaneous alteration (%)” value (APP/PS1 TG mice) was “increased closer to the positive control group (WT-Veh)”.

With `CN(C)CCCN1c2ccccc2Sc2ccc(C(F)(F)F)cc21` [triflupromazine, dimethyl ({3-[2-(trifluoromethyl)-10H-phenothiazin-10-yl]propyl})amine] the “Aβ aggregation degree compared to the control” value (Aβ1-42 [1]) was ≤ 70%, the “amyloid aggregation inhibition effect compared to the control” value (Aβ1-42 [1]) was ≥ 30% and the “Aggregation (%)” value (Aβ1-42 [1]) was 49.84%. For the same molecule, the amyloid disaggregation effect (Aβ1-42 [2]; 50 μM compound) was ≥ 35%, the “degree of Aβ aggregation compared to the control” value (Aβ1-42 [2]; 50 μM compound) was ≤ 65% and the amyloid disaggregation effect (Aβ1-42 [2]; 500 μM compound) was ≥ 75%. The “degree of Aβ aggregation compared to the control” value (Aβ1-42 [2]; 500 μM compound) was ≤ 25%, the “Aβ disaggregation (bands of aggregated Aβ fibrils and dimers)” value (Aβ42) was “concentration-dependent Aβ disaggregation activity” and the number of plaques (5× FAD mice) was “reduced”. The “total areas of plaques” value (5× FAD mice) was “reduced”, the “P-Tau (phosphorylated Tau)” value [4, 5] was “decreased” and the “T-Tau (Total Tau)” value [4, 5] was “decreased”. The “decrease in phosphorylated Tau (P-Tau)” value ([4]; wild type mice (Wt)) was “not observed” and the “decrease in total Tau (T-Tau)” value ([4]; wild type mice (Wt)) was “not observed”.
